Test results taken from US11059795B2, “Androgen receptor modulators and methods for their use” (ESSA Pharma, Inc., priority 2018, dated 2021).
pIC50: −log10 of the molar value.

Columns and labels:
[1] = Microsomal stability assay, mouse liver microsomes; type: in vitro ADME; settings: 1 μM compound, 0.5 mg/mL protein, 37° C.; for microsomal CLint at 1 μM: mouse, liver microsomes, pH 7.4, mouse liver microsomes, read-out: MLM +30/− NADPH: Clint (μL/min/mg protein)
In short: (§1)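 Compound at 1 μM was incubated at 37° C with 0.5 mg/mL liver microsomes and 1 mM NADPH and/or 1 mM UDPGA (with alamethicin) in 100 mM potassium phosphate pH 7.4, 3 mM MgCl2. Samples were taken at 0, 15, 30 and 60 min and measured by LC/MS/MS. t½ came from compound loss relative to 0 min, and Clint was scaled with 45 mg microsomal protein/g liver.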

[2] = target: T1, androgen receptor (AR) (Homo sapiens, UniProt P10275, T878A); assay: Androgen-induced PSA (6.1 kb)-luciferase reporter assay in LNCaP cells; type: cell-based; settings: LNCaP cells transfected with PSA (6.1 kb)-luciferase reporter, R1881 1 nM, 24 h; read-out: PSA-Luc IC50 Range
T1 construct: LNCaP cells were transiently transfected with the PSA (6.1 kb)-luciferase reporter for 24 h; endogenous in cells; host or cells: LNCaP
T1 sequence (P10275 1-920 T878A): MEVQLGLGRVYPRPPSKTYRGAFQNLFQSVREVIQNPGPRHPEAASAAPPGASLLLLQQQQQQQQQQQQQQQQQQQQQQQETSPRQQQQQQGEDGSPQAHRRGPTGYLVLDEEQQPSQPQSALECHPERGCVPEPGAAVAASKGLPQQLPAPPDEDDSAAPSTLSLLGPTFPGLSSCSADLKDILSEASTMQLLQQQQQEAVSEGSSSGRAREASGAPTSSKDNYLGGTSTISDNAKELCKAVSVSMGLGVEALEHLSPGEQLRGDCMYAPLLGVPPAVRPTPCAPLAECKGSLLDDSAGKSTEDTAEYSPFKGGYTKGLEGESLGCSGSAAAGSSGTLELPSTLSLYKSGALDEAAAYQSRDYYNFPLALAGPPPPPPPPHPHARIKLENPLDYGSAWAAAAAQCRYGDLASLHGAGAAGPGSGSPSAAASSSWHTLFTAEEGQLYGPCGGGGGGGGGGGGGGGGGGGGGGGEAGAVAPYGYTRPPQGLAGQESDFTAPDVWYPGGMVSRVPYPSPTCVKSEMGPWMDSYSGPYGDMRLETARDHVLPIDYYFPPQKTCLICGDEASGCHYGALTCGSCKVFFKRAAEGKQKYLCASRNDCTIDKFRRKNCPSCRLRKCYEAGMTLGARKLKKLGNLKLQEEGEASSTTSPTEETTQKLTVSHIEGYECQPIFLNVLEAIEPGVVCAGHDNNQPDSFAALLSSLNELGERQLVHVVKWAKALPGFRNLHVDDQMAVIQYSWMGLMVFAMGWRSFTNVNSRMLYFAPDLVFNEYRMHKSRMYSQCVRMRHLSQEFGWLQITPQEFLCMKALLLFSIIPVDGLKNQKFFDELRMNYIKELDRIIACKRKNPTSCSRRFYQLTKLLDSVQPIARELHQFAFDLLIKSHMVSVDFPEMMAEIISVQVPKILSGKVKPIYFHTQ
In short: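 Read-out is firefly luminescence (10 s) in LNCaP lysates, normalized to protein, from an ARE-containing PSA (6.1 kb)-luciferase reporter driven by androgen.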

[3] = Microsomal stability assay, human liver microsomes; type: in vitro ADME; settings: pH 7.4, 1 μM compound, 0.5 mg/mL protein, 37° C., read-out: HLM +/− NADPH: Clint (μL/min/mg protein)
In short: as §1

[4] = Hepatocyte stability assay, mouse hepatocytes; type: in vitro ADME; settings: 1 μM compound, 0.5 million cells/mL, 37° C.; for hepatocyte CLint at 1 μM: mouse, cryopreserved hepatocytes, read-out: MH +/− NADPH: Clint (μL/min/million cells)
In short: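 Cryopreserved rat, human or mouse hepatocytes at 0.5 million cells/mL in DMEM with 1 μM compound, 37° C, sampled at 0, 60, 120 and 180 min and quenched with acetonitrile/formic acid. Parent loss vs 0-min by LC/MS/MS gave t½, and Clint = 0.693/t½ × mL incubation/million cells.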

| SMILES | microsomal CLint at 1 μM [1] [µL/min/mg] | pIC50 [2] | microsomal CLint at 1 μM [3] [µL/min/mg] | hepatocyte CLint at 1 μM [4] [µL/min/1e6 cells] | MLM +30/− NADPH: Clint (μL/min/mg protein) ([1]; mouse liver microsomes) | MH +/− NADPH: Clint (μL/min/million cells) [4] |
| --- | --- | --- | --- | --- | --- | --- |
| CC(C)(c1ccc(OCc2ncc(NS(C)(=O)=O)s2)cc1)c1cc(Cl)c(OCCCl)c(C#N)c1 [Compound A135] | 12 to 48 | > 6.30 | 12 to 48 | ≥ 18 | – | – |
| CC(C)(c1ccc(OCC2COC(NS(C)(=O)=O)=N2)cc1)c1ccc(OCCCl)c(C#N)c1 (stereo not shown) [Compound A143] | < 12 | < 5.70 | < 12 | < 4 | – | – |
| CC(Oc1ccc(C(C)(O)c2cc(Cl)c(OCCCl)c(C#N)c2)cc1)c1ocnc1S(C)(=O)=O (stereo not shown) [Compound A95] | ≥ 48 | < 5.70 | 12 to 48 | ≥ 18 | – | – |
| CC(C)(c1ccc(OCc2coc(N)n2)cc1)c1cc(Cl)c(OCCCl)c(C#N)c1 [Compound A155] | ≥ 48 | > 6.30 | 12 to 48 | 4 to 18 | – | – |
| Cc1cc(C(C)(C)c2ccc(OC(C)c3ncc(S(C)(=O)=O)o3)cc2)cc(C#N)c1OCCCl (stereo not shown) [Compound A89] | ≥ 48 | 5.70 to 6.30 | 12 to 48 | ≥ 18 | – | – |
| CC(C)(c1ccc(OCc2coc(NS(C)(=O)=O)n2)cc1)c1cc(Cl)c(OCCCl)c(C#N)c1 [Compound A130] | < 12 | 5.70 to 6.30 | 12 to 48 | < 4 | – | – |
| CC(C)(c1ccc(OCc2ccnc(NS(C)(=O)=O)c2)cc1)c1cc(Cl)c(OCCCl)c(C#N)c1 [Compound A195] | < 12 | > 6.30 | < 12 | 4 to 18 | – | – |
| CC(Oc1ccc(C(C)(C)c2cc(Cl)c(OCCCl)c(C#N)c2)cc1)c1coc(S(C)(=O)=O)n1 (stereo not shown) [Compound A85] | ≥ 48 | > 6.30 | < 12 | ≥ 18 | – | – |
| CC(Oc1ccc(C(C)(C)c2cc(Cl)c(OCCCl)c(C#N)c2)cc1)c1coc(NS(C)(=O)=O)n1 (stereo not shown) [Compound A91] | < 12 | 5.70 to 6.30 | < 12 | 4 to 18 | – | – |
| CC(C)(c1ccc(OCc2csc(NS(C)(=O)=O)n2)cc1)c1cc(Cl)c(OCCCl)c(C#N)c1 [Compound A134, N-(4-((4-(2-(3-chloro-4-(2-chloroethoxy)-5-cyanophenyl)propan-2-yl)phenoxy)methyl)thiazol-2-yl)methanesulfonamide] | < 12 | 5.70 to 6.30 | 12 to 48 | < 4 | – | – |
| Cc1cc(C(C)(C)c2ccc(OC(C)c3scnc3S(C)(=O)=O)cc2)cc(C#N)c1OCCCl (stereo not shown) [Compound A70] | ≥ 48 | > 6.30 | 12 to 48 | 4 to 18 | – | – |
| CC(Oc1ccc(C(C)(C)c2cc(Cl)c(OCCCl)c(C#N)c2)cc1)c1ccnc(S(C)(=O)=O)n1 (stereo not shown) [Compound A147] | ≥ 48 | < 5.70 | 12 to 48 | ≥ 18 | – | – |
| CC(C)(c1ccc(OCc2ccnc(N3CCCCS3(=O)=O)n2)cc1)c1cc(Cl)c(OCCCl)c(C#N)c1 [Compound A198] | 12 to 48 | > 6.30 | < 12 | 4 to 18 | – | – |
| CC(C)(c1ccc(OCc2nccnc2NS(C)(=O)=O)cc1)c1cc(Cl)c(OCCCl)c(C#N)c1 [Compound A103] | – | > 6.30 | 12 to 48 | – | ** (** represents Cl in the range of 12-48 μL/min/mg protein) | *** (*** represent Cl < 4 cells μL/min/million cells) |
| CC(C)S(=O)(=O)c1nc(COc2ccc(C(C)(C)c3cc(Cl)c(OCCCl)c(C#N)c3)cc2)co1 [Compound A125] | ≥ 48 | > 6.30 | < 12 | ≥ 18 | – | – |
| CC(C)(c1ccc(NC(=O)c2coc(S(C)(=O)=O)n2)cc1)c1cc(Cl)c(OCCCl)c(C#N)c1 [Compound A96] | ≥ 48 | < 5.70 | ≥ 48 | ≥ 18 | – | – |
| Cc1nc(S(C)(=O)=O)oc1COc1ccc(C(C)(C)c2cc(Cl)c(OCCCl)c(C#N)c2)cc1 [Compound A81] | ≥ 48 | > 6.30 | 12 to 48 | ≥ 18 | – | – |
| CSc1ncc(COc2ccc(C(C)(C)c3cc(Cl)c(OCCCl)c(Cl)c3)cc2)o1 [Compound A111] | 12 to 48 | > 6.30 | 12 to 48 | 4 to 18 | – | – |
| CC(Oc1ccc(C(C)(C)c2cc(Cl)c(OCCCl)c(C#N)c2)cc1)c1cnc(NS(C)(=O)=O)o1 (stereo not shown) [Compound A92] | 12 to 48 | > 6.30 | 12 to 48 | ≥ 18 | – | – |
| C[C@@H](Oc1ccc(C(C)(C)c2cc(Cl)c(OCCCl)c(C#N)c2)cc1)c1ccnc(NS(C)(=O)=O)n1 (single isomer, unassigned) [Compound A169] | < 12 | > 6.30 | < 12 | < 4 | – | – |
| CC(C)(c1ccc(OCc2cnc(NS(C)(=O)=O)cn2)cc1)c1cc(Cl)c(OCCCl)c(C#N)c1 [Compound A197] | < 12 | 5.70 to 6.30 | < 12 | < 4 | – | – |
| CC(C)(c1ccc(OCc2nc(C#N)cs2)cc1)c1cc(Cl)c(OCCCl)c(C#N)c1 [Compound A172, 2-((4-(2-(3-chloro-4-(2-chloroethoxy)-5-cyanophenyl)propan-2-yl)phenoxy)methyl)thiazole-4-carbonitrile] | < 12 | > 6.30 | < 12 | < 4 | – | – |
| CC(C)(c1ccc(OCc2cnc(C#N)o2)cc1)c1cc(Cl)c(OCCCl)c(C#N)c1 [Compound A113] | 12 to 48 | < 5.70 | 12 to 48 | ≥ 18 | – | – |
| CC(C)(c1ccc(OCc2cnc(NS(C)(=O)=O)nc2)cc1)c1cc(Cl)c(OCCCl)c(C#N)c1 [Compound A204] | < 12 | > 6.30 | < 12 | < 4 | – | – |
| CC(C)(c1ccc(OCc2ocnc2S(C)(=O)=O)cc1)c1cc(Cl)c(OCC(O)CCl)c(Cl)c1 (stereo not shown) [Compound A117] | 12 to 48 | 5.70 to 6.30 | 12 to 48 | ≥ 18 | – | – |
| C[C@](O)(c1ccc(OCc2ocnc2S(C)(=O)=O)cc1)c1cc(Cl)c(OCCCl)c(C#N)c1 [Compound A108] | ≥ 48 | 5.70 to 6.30 | < 12 | ≥ 18 | – | – |
| CC(C)(c1ccc(OCc2cnc(S(C)(=O)=O)s2)cc1)c1cc(Cl)c(OCCCl)c(C#N)c1 [Compound A149] | < 12 | > 6.30 | < 12 | ≥ 18 | – | – |
| CC(=O)Nc1nccc(COc2ccc(C(C)(C)c3cc(C)c(OCCCl)c(C#N)c3)cc2)n1 [Compound A100] | ≥ 48 | > 6.30 | ≥ 48 | ≥ 18 | – | – |
